# Counter-ions that a name gives are not always drawn. Like-named read-outs stand apart in the source and are kept apart here.
# Legend:
# Format in all cases: physicochemical
# [1] = Stability as a drug substance, 2-week storage, HPLC assay of mainly degradation product (Test Example 1, Stage 1); conditions: 2-week storage at 25° C./75% RT (closed system), increase in HPLC area % of mainly degradation product
# Description: (§1) As the monomaleic acid salt, the sample in Example 5 was used in Stage 1 of Table 2, and the sample in Example 1 was used in Stage 2. The other samples in respective Stages of Table 2 were prepared in accordance with Patent Literature 1. The solubility and the stability as a drug substance of the respective samples were examined in Stage 1, and the crystallinity, phenomenon of crystal polymorphism, and presence or absence of adhesion water were examined in Stage 2.
# Stability as a drug substance: The sample after 2-week storage at 25° C./75% RT (closed system) was assayed by high-performance liquid chromatography (HPLC) under conditions described below. When the increase in area percentage (%) of a mainly degradation product is less than +0.5%, the stability of drug substances is represented as circle (◯), and when the increase is +0.5% or more, the stability of drug substances is represented as cross mark (x). In Test Example 2, the mainly degradation product was assayed by HPLC under the same conditions.
# Conditions of HPLC in test of stability as a drug substance
# column: Atlantis dC18, 2.1 mm φ×15 cm, 3 μm Measurement wavelength: 254 nm column temperature: 40° C. Flow rate: 0.2 mL/min Mobile phase A: 0.05% formic acid aqueous solution Mobile phase B: 0.05% formic acid-acetonitrile solution Transfer of mobile phases: The mixed ratio of mobile phase A and mobile phase B is changed as shown in Table 1 to control the concentration gradient.
# [2] = Solubility in water (Test Example 1, Stage 1)
# Description: as §1
# Solubility: When the ratio of dissolved sample to water is 10 mg/mL or more, the solubility of the sample is represented as circle (◯), and when the ratio is 10 mg/mL or less, the solubility is represented as cross mark (x).
# [3] = Adhesion water by thermal analysis TG-DTA (Test Example 1, Stage 2); conditions: for ADHESION WATER: decrease (%) in TG-DTA chart at about 50° C., Stage 2; for adhesion water (in words): TG-DTA decrease (%) at about 50° C.
# Description: (§2) A sample (5 mg) was placed in a sample pan (a container made of aluminum), and thermal analysis TG-DTA of the sample was performed using EXSTAR 6000 thermal analyzer manufactured by Seiko Instruments Inc.
# as §1
# Adhesion water: When decrease (%) in the chart obtained from the thermal analysis TG-DTA is seen at about 50° C., the adhesion water is represented as “Presence,” and when the decrease (%) is not seen, the adhesion water is represented as “None.”
# [4] = Development of crystal polymorphism by TG-DTA and powder x-ray diffraction (Test Example 1, Stage 2); conditions: TG-DTA versus powder x-ray diffraction
# Description: as §2
# (§3) A sample (about 100 mg) was (lightly) pulverized in an agate mortar, and a packed section of a sample flat holder made of glass was filled with the pulverized sample. Powder x-ray diffraction of the sample was then performed using RINT2200 powder x-ray diffractometer (Rigaku Corporation).
# as §1
# Development of crystal polymorphism: For crystals of the same salt, when the crystal structure shown by the thermal analysis TG-DTA is different from that shown by the powder x-ray diffraction, the development of crystal polymorphism is represented as “Presence”. On the other hand, when the thermal analysis TG-DTA and the powder x-ray diffraction show the same crystal structure, the development of crystal polymorphism is represented as “None.”
# [5] = Crystallinity by powder x-ray diffraction (Test Example 1, Stage 2); conditions: for CRYSTALLINITY: powder x-ray diffraction peak intensity, Stage 2; for crystallinity (in words): powder x-ray diffraction
# Description: as §3, §1
# Crystallinity: In powder x-ray diffraction, when a peak intensity is 5000 cps or more, the crystallinity is represented as “High,” and when it is 5000 cps or less, the crystallinity is represented as “Low.”
# [6] = ratio of dissolved sample to water, Stage 1
Compound,STABILITY AS DRUG SUBSTANCE [1],"SOLUBILITY [2, 6]",ADHESION WATER [3],PHENOMENON OF CRYSTAL POLYMORPHISM [4],CRYSTALLINITY [5],adhesion water (in words) [3],crystallinity (in words) [5],other results
"CCc1cc(OC)cc2nc(-c3cccnc3N3CC[C@H](N(C)C)C3)oc(=O)c12 [DIHYDROCHLORIDE, 2-[2-((S)-3-dimethylaminopyrrolidin-1-yl)pyridin-3-yl]-5-ethyl-7-methoxy-4H-benz[d][1,3]oxazin-4-one]",x (when the increase is +0.5% or more),∘,PRESENCE,–,–,–,–,solubility in water ([2]; water): ≥ 10000 µg/mL
"CCc1cc(OC)cc2nc(-c3cccnc3N3CC[C@H](N(C)C)C3)oc(=O)c12 [FREE FORM, 2-[2-((S)-3-dimethylaminopyrrolidin-1-yl)pyridin-3-yl]-5-ethyl-7-methoxy-4H-benz[d][1,3]oxazin-4-one]",∘,x (when the ratio is 10 mg/mL or less),–,AMORPHOUS,LOW,–,–,"solubility in water ([2]; water, listed as free base): ≤ 2000 µg/mL"
"CCc1cc(OC)cc2nc(-c3cccnc3N3CC[C@H](N(C)C)C3)oc(=O)c12.Cl.O [MONOHYDROCHLORIDE, 2-[2-((S)-3-dimethylaminopyrrolidin-1-yl)pyridin-3-yl]-5-ethyl-7-methoxy-4H-benz[d][1,3]oxazin-4-one hydrochloride monohydrate]",∘,∘,PRESENCE,PRESENCE,LOW,adhesion water was present,low crystallinity and high amorphous content,"SOLUBILITY ([2]; water, read-out: solubility in water): ≥ 10000 µg/mL"
"CCc1cc(OC)cc2nc(-c3cccnc3N3CC[C@H](N(C)C)C3)oc(=O)c12 [MONOMALEIC ACID, 2-[2-((S)-3-dimethylaminopyrrolidin-1-yl)pyridin-3-yl]-5-ethyl-7-methoxy-4H-benz[d][1,3]oxazin-4-one monomaleate]",–,–,–,–,–,adhesion water was not present,high crystallinity,"STABILITY AS DRUG SUBSTANCE ([1]; monomaleate): ∘; SOLUBILITY ([2]; ratio of dissolved sample to water, Stage 1, monomaleate): ∘; solubility in water ([2]; water, listed as monomaleic acid salt, monomaleate): ≥ 10000 µg/mL; ADHESION WATER ([3]; monomaleate): NONE; PHENOMENON OF CRYSTAL POLYMORPHISM ([4]; monomaleate): PRESENCE; CRYSTALLINITY ([5]; monomaleate): HIGH"
"CCc1cc(OC)cc2nc(-c3cccnc3N3CC[C@H](N(C)C)C3)oc(=O)c12 [½D-TARTARIC ACID, 2-[2-((S)-3-dimethylaminopyrrolidin-1-yl)pyridin-3-yl]-5-ethyl-7-methoxy-4H-benz[d][1,3]oxazin-4-one]",x (when the increase is +0.5% or more),∘,PRESENCE,–,–,–,–,"solubility in water ([2]; water, listed as 1/2D-tartaric acid salt): ≥ 10000 µg/mL"
"CCc1cc(OC)cc2nc(-c3cccnc3N3CC[C@H](N(C)C)C3)oc(=O)c12 [¾L-TARTARIC ACID, 2-[2-((S)-3-dimethylaminopyrrolidin-1-yl)pyridin-3-yl]-5-ethyl-7-methoxy-4H-benz[d][1,3]oxazin-4-one]",∘,–,PRESENCE,–,–,–,–,"SOLUBILITY ([2]; water, ratio of dissolved sample to water, Stage 1, read-out: SOLUBILITY): ≤ 10000 µg/mL"

# Source: patent publication US20120245346A1, “MALEIC ACID SALT AND CRYSTAL THEREOF” (Kyorin Pharmaceutical Co., Ltd., priority 2009, published 2012)
